# In patent US4859668A, “Method of inhibiting the growth of melanin-pigmented cells” (North Carolina State University, priority 1988, dated 1989):
# Like-named read-outs stand apart in the source and are kept apart here.
# Experiments:
# in vitro = settings: mouse, l929 cells
# Description: (§4) These cells were maintained as monolayers in Corning plastic flasks in Minimum Essential Medium (Eagle) with Earle's salts supplemented with 10% fetal bovine serum, 100 units of penicillin, 100 mg of streptomycin and 5 mg of amphotericin B per ml in 5% CO2 humidified air at 37° C.
# (§5) Prior to dose-response studies, single cell suspensions were prepared in medium following trypsinization and inoculated into Falcon Multiwell plates (2 cm^2 wells) at 3.5×10^4 cells per 0.5 ml of medium. Cultures were maintained for 24 hours before exposure.
# (§6) This stock solution was used to prepare test concentrations of the drug in culture medium. […] Cells were exposed to each of these concentrations by adding 0.5 ml of each of the solutions to triplicate test wells and incubating the cells under exposure at 37° C. for 1 hour. […] Cells were harvested after 48 hours and counted with a hemacytometer.
# [1] = system: NP (amelanotic clone of HFH-LP); assay: cells; settings: Mus musculus, 48 h, read-out: ID50 (growth)
# Description: (§1) The Figure illustrates the effect of morpholine on the growth rate of HFH-LP (*), NP (0), BHK (+) and CHO (#) 48 hours after treatment. Values represent the mean ± S.E. for 3 to 6 determinations.
# [2] = system: Chinese hamster ovary (CHO); assay: cells; settings: Cricetulus griseus, 48 h, read-out: ID50 (growth)
# Description: as §1
# [3] = system: baby hamster kidney (BHK); assay: cells; settings: Mesocricetus auratus, 48 h, read-out: ID50 (growth)
# Description: as §1
# [4] = system: HFH-LP (pigmented line derived from the B-16 mouse melanoma); assay: cells
# Description: as §1
# HFH-LP [5] = assay: Effect of Cyclic Amines on Growth Rate of Pigmented Melanoma (Table I), HFH-LP; format: cell-based, mouse; settings: for inhibition at 13800 µM: Mus musculus, read-out: Effect on Growth Rate (inhibition), HFH-LP
# Description: (§7) These cell cultures include low passage HFH (HFH-LP), a pigmented line derived from the B-16 mouse melanoma, and NP, an amelanotic clone of HFH-LP. […] These cells were maintained as monolayers in Corning plastic flasks in Minimum Essential Medium (Eagle) with Earle's salts supplemented with 10% fetal bovine serum, 100 units of penicillin, 100 mg of streptomycin and 5 mg of amphotericin B per ml in 5% CO2 humidified air at 37° C.
# as §5, §6
# L929 fibroblast = assay: Effects of Various Cyclic Amines on Growth of Pigmented Melanoma Cells (Table III), L929; format: cell-based, mouse; settings: Mus musculus, read-out: Percent Inhibition, L929 fibroblast
# Description: (§2) Pigmented S91 melanoma and unpigmented L929 fibroblast cells were treated with various cyclic amines at a concentration of 13.8 mM as described in Example 1 above.
# NP [6] = assay: cells; settings: Mus musculus, 48 h, read-out: Growth inhibition, Morph. Alone vs. control
# Description: (§8) These cell cultures include low passage HFH (HFH-LP), a pigmented line derived from the B-16 mouse melanoma, and NP, an amelanotic clone of HFH-LP. High passage HFH (HFH-HP) was derived from HFH-LP after 30 passages in vitro. […] These cell cultures further include Cloudman S91 mouse melanoma, RPMI 1846 (a Syrian hamster melanoma), baby hamster kidney (BHK) and Chinese hamster ovary (CHO). These cells were maintained as monolayers in Corning plastic flasks in Minimum Essential Medium (Eagle) with Earle's salts supplemented with 10% fetal bovine serum, 100 units of penicillin, 100 mg of streptomycin and 5 mg of amphotericin B per ml in 5% CO2 humidified air at 37° C.
# (§9) Single cell suspensions were prepared as described above. Twenty-four hours after seeding, the cells were exposed to either (a) culture medium alone, or (b) culture medium containing 0.5 mM theophylline.
# (§10) The values given are the mean from 6 replicates.
# [7] = system: S91 (Cloudman S91 mouse melanoma); assay: Effect of Cyclic Amines on Survival of Pigmented Melanoma (Table II), S91; settings: 24 h, read-out: percentage dead, S91
# Description: as §4, §5, §6
# HFH-LP [8] = assay: Effect of Cyclic Amines on Survival of Pigmented Melanoma (Table II), HFH-LP; settings: Mus musculus, 24 h, read-out: percentage dead, HFH-LP
# Description: as §4, §5, §6
# SH = assay: cells; settings: read-out: Percent Cell Detachment
# Description: (§3) HFH and SH heavily pigmented cells, S91 lightly pigmented cells, and BHK nonpigmented cells were exposed to 13.8 mM morpholine for time periods ranging from 1 hour to 56 hours. The procedure was otherwise the same as described in Example 1 above. Cell death is indicated by cell detachment.
# BHK [9] = assay: cells; settings: Mesocricetus auratus, read-out: Percent Cell Detachment
# Description: as §3
# S91 = assay: cells; settings: Mus musculus, read-out: Percent Cell Detachment
# Description: as §3
# HFH = assay: cells; settings: Homo sapiens, read-out: Percent Cell Detachment
# Description: as §3
# S91 melanoma = assay: Effects of Various Cyclic Amines on Growth of Pigmented Melanoma Cells (Table III), S91; format: cell-based, mouse; settings: Mus musculus, read-out: Percent Inhibition, S91 melanoma
# Description: as §2
# NP [10] = assay: cells; settings: Mus musculus, 1.5 h, read-out: Effect on Growth Rate (inhibition), NP
# Description: as §7, §5, §6
# melanin-pigmented cells = assay: In vitro selective inhibition of melanin-pigmented cells, effective dosage/time regimens; format: cell-based
# L929 = assay: cells; settings: Mus musculus, L929, 48 h, read-out: Growth inhibition, Morph. Alone vs. control
# RPMI-1641 [11] = settings: RPMI 1641, morpholine alone
# Description: as §8, §9, §10
# BHK [12] = assay: cells; settings: Mesocricetus auratus, 48 h, read-out: Growth inhibition, Morph. Alone vs. control
# Description: as §8, §9, §10
# [13] = system: unpigmented cell lines NP, BHK and CHO
# Description: as §1
# RPMI-1641 [14] = assay: cells; settings: Mesocricetus auratus, 48 h, read-out: Growth inhibition, Morph. Alone vs. control
# Description: as §8, §9, §10
# HFH-LP [15] = assay: cells; settings: Mus musculus, 48 h, read-out: Growth inhibition, Morph. Alone vs. control
# Description: as §8, §9, §10
# [16] = Effect of Cyclic Amines on Survival of Pigmented Melanoma (Table II), L929; settings: mouse, l929 cells
# Description: as §4, §5, §6
# Description for HFH-HP: as §8, §9, §10
smiles,measurement,setting,value
C1COCCN1 [morpholine],"cytotoxicity at 24 h, 13800 µM",in vitro,-101 ± 15%
same,IC50,[1],> 2400 µg/mL
same,IC50,[2],> 2400 µg/mL
same,IC50,[3],> 2400 µg/mL
same,IC50,"[4]; Mus musculus, 48 h, read-out: ID50 (growth)",1200 µg/mL
same,inhibition of pigmented HFH cell line compared with unpigmented cell lines,[4]; at 1200 and 2400 ug/ml,inhibited significantly more (P<0.05)
same,inhibition of pigmented cells,"[4]; up to, 300-2400 ug/ml, 48 hours after treatment",up to 90%
same,inhibition at 13800 µM,"HFH-LP [5]; 13.8 mM for 1.5 hr, mean ± S.E., 6 replicates",97 ± 19%
same,inhibition at 13800 µM,"L929 fibroblast; L929, 1 Hour Exposure to 13.8 mM",0%
same,inhibition at 1200 µg/mL,NP [6],-9%
same,cytotoxicity at 13800 µM,[7],55 ± 6%
same,cytotoxicity at 13800 µM,HFH-LP [8],30 ± 7%
same,greater toxicity of morpholine with theophylline pretreatment,HFH-HP; growth inhibition increasing from 25% to 54%,twofold
same,growth inhibition with theophylline pretreatment,HFH-HP; morpholine with theophylline pretreatment,54%
same,cytotoxicity at 13800 µM,SH; 1 h,0%
same,cytotoxicity at 13800 µM,SH; 6 h,0%
same,cytotoxicity at 13800 µM,SH; 12 h,5%
same,cytotoxicity at 13800 µM,SH; 18 h,80%
same,cytotoxicity at 13800 µM,SH; 24 h,80%
same,cytotoxicity at 13800 µM,SH; 56 h,100%
same,cytotoxicity at 13800 µM,BHK [9]; 1 h,0%
same,cytotoxicity at 13800 µM,BHK [9]; 6 h,0%
same,cytotoxicity at 13800 µM,BHK [9]; 12 h,0%
same,cytotoxicity at 13800 µM,BHK [9]; 18 h,0%
same,cytotoxicity at 13800 µM,BHK [9]; 24 h,20%
same,cytotoxicity at 13800 µM,BHK [9]; 56 h,100%
same,cytotoxicity at 13800 µM,"S91; S91, 1 h",0%
same,cytotoxicity at 13800 µM,"S91; S91, 6 h",50%
same,cytotoxicity at 13800 µM,"S91; S91, 12 h",100%
same,cytotoxicity at 13800 µM,"S91; S91, 18 h",100%
same,cytotoxicity at 13800 µM,"S91; S91, 24 h",100%
same,cytotoxicity at 13800 µM,"S91; S91, 56 h",100%
same,cytotoxicity at 13800 µM,HFH; 1 h,0%
same,cytotoxicity at 13800 µM,HFH; 6 h,40%
same,cytotoxicity at 13800 µM,HFH; 12 h,100%
same,cytotoxicity at 13800 µM,HFH; 18 h,100%
same,cytotoxicity at 13800 µM,HFH; 24 h,100%
same,cytotoxicity at 13800 µM,HFH; 56 h,100%
same,inhibition at 13800 µM,"S91 melanoma; S91, 1 Hour Exposure to 13.8 mM",60%
same,inhibition at 13800 µM,NP [10],0%
same,in vitro effectiveness of dosage/time regimen,melanin-pigmented cells; 2.3 mM for 6 days,effective in vitro for inhibiting the growth of melanin-pigmented cells with little or no effect upon unpigmented cells
same,in vitro effectiveness of dosage/time regimen,melanin-pigmented cells; 13.8 mM for 1 hour,effective in vitro for inhibiting the growth of melanin-pigmented cells with little or no effect upon unpigmented cells
same,selective toxicity to melanoma cells in vitro,melanin-pigmented cells; 750 ppm (9mM) or 500 ppm (5mM),selectively toxic to melanoma cells in vitro
same,inhibition at 1200 µg/mL,L929,-68%
same,growth rate with morpholine exposure alone,RPMI-1641 [11],not inhibited
same,inhibition at 1200 µg/mL,BHK [12],0%
same,difference between unpigmented cell lines,[13]; any of the dosages tested,did not differ significantly from one another
same,inhibition of nonpigmented cell growth,"[13]; higher dosages, 48 hours after treatment",20%
same,effect on nonpigmented cell growth,"[13]; low dosages, 48 hours after treatment",not affected
same,inhibition at 1200 µg/mL,RPMI-1641 [14],-6%
same,inhibition at 1200 µg/mL,HFH-LP [15],64%
C1CCNCC1 [piperidine],inhibition at 13800 µM,HFH-LP [5]; 1.5 h,42 ± 4%
same,inhibition of pigmented cell line HFH-LP (in words),HFH-LP [5]; not as effective as morpholine at the dosage tested,"selectively inhibitory to the pigmented cell line HFH-LP, although not as effective as morpholine"
same,inhibition at 13800 µM,"L929 fibroblast; L929, 1 h",0%
same,cytotoxicity at 13800 µM,[7],44 ± 3%
same,cytotoxicity at 13800 µM,HFH-LP [8],33 ± 2%
same,"cytotoxicity at 24 h, 13800 µM",[16],-115 ± 14%
same,inhibition at 13800 µM,"S91 melanoma; S91, 1 h",98%
same,inhibition at 13800 µM,NP [10],0%
same,in vitro effectiveness of dosage/time regimen,melanin-pigmented cells; 13.8 mM for 1 hour,effective in vitro for inhibiting the growth of melanin-pigmented cells with little or no effect upon unpigmented cells
